Assay results as given in patent US20210259981A1, “COMPOSITIONS AND METHODS OF TREATMENT” (Blueberry Therapeutics Limited, priority 2018, published 2021).
Values after ≈ are worked out from the molar mass of the structure shown.

Assays:
[1] = Franz cell porcine skin permeation, ToF-SIMS tape strip analysis; assay type: in vitro ADME, pig; conditions: for evidence of permeation (key findings): porcine skin, ToF-SIMS imaging and tape stripping, with or without Nanocin
[2] = test system: IL-8 release, THP-1 cells; assay: LPS-stimulated IL-8 release in THP-1 cells (inflammation assay); assay type: cell-based, human; conditions: for potency at inhibiting the LPS inflammatory response (in words): IL-8, dose range 0-30 ug/ml; for MIC (inhibiting the LPS IL-8 response): API dose range 0-30 ug/ml
[3] = Solubility of APIs in ethanol & water vehicles; assay type: physicochemical; conditions: for Solubility in water and ethanol (in words): comparison among the screened APIs
[4] = test system: TNF-α release, THP-1 cells; assay: LPS-stimulated TNF-α release in THP-1 cells (inflammation assay); assay type: cell-based, human; conditions: final concentration 1 or 0.1 ug/ml; normalised with cell count
Description: The release of cytokines (looking particularly at those associated with inflammation-TNF-α, IL-8, IL-1α) after stimulation with lipopolysaccharide (LPS) is a valid model system to test compounds for potential anti-inflammatory effects (Reference 1)
To standardise conditions for the assay, a LPS dose (0-1 ug/ml) was investigated on TNF-α, IL-8 and IL-1α response, over a time period from 2, 4 and 24 hours.
A 1:1 mg/ml (Nanocin:API) was initially formulated in 20% ethanol and the stock formulation was then diluted down with serum free media and tested at a final concentration of 1 or 0.1 ug/ml.

[5] = Franz cell porcine skin permeation, ToF-SIMS cross sectional analysis; assay type: in vitro ADME, pig; conditions: cross sections; 1 mg/ml Diclofenac; partial embedding
Description: The experimental work involved applying various formulations to the skin in a Franz cell, leaving it for 24 hours as an infinite dose. Initial formulations were 1 mg/ml Nanocin and 300 ug/ml API in 20% ethanol. The same concentration of formulation were also used using FITC labelled Nanocin. Methods of detection was by: Franz Cell Method 1: Full OCT Embedding Method and Cryo-Sectioning; Franz Cell Method 2: Partial OCT Embedding and Cryo-Sectioning; Franz Cell Method 3: Partial OCT Embedding and Tape Stripping; and Time-of-Flight Secondary Ion Mass Spectrometry (ToF-SIMS) Fluorescence Microscopy.
Porcine ears used for the Franz cell analysis were sourced from a local abattoir. The age of the pig slaughtered were between 4-6 months old. The ears were cleaned with deionised water and the outside skin was carefully removed from the underlying cartilage. The excised skin was then stored at −20° C. until use. All ears used for the permeation experiment were within 6 months after procurement.
Prior to setting up the Franz cells, the skin was defrosted by leaving it at room temperature and pressure. Excess hairs on the porcine skin were not trimmed in this instance (to promote capacity to identify follicular delivery). […]

SMILES | evidence of permeation (key findings) [1] | potency at inhibiting the LPS inflammatory response (in words) ([2]; THP-1 cells) | MIC (inhibiting the LPS IL-8 response) ([2]; THP-1 cells, 24 h) [µg/mL] | Solubility in water and ethanol (in words) [3] | also measured
C=CC[C@@H]1/C=C(\C)C[C@H](C)C[C@H](OC)[C@H]2O[C@@](O)(C(=O)C(=O)N3CCCC[C@H]3C(=O)O[C@H](/C(C)=C/[C@@H]3CC[C@@H](O)[C@H](OC)C3)[C@H](C)[C@@H](O)CC1=O)[C@H](C)C[C@@H]2OC [Tacrolimus] | no evidence | more potent than Ibuprofen | 0.3 (≈ 0.373 µM) |  | anti-inflammatory effect, IL-8 normalised with cell count ([2]; 30 ug/ml API, 10 ug/ml LPS, 24 h): more effective anti-inflammatory; Solubility ([3]; 10 mg/ml API solution, 10% ethanol): x(better)
Cc1ccc(-c2cc(C(F)(F)F)nn2-c2ccc(S(N)(=O)=O)cc2)cc1 [Celecoxib] |  |  |  | insolubility | 
CO[C@H]1C[C@@H]2CC[C@@H](C)[C@@](O)(O2)C(=O)C(=O)N2CCCC[C@H]2C(=O)O[C@H]([C@H](C)C[C@@H]2CC[C@@H](O)[C@H](OC)C2)CC(=O)[C@H](C)/C=C(\C)[C@@H](O)[C@@H](OC)C(=O)[C@H](C)C[C@H](C)/C=C/C=C/C=C/1C [Rapamycin] | no evidence |  | 1 (≈ 1.09 µM) |  | 
CC(C)Cc1ccc(C(C)C(=O)O)cc1 (stereo not drawn) [Ibuprofen] | no evidence |  |  | better solubility | effect on reducing the IL-8 release ([2]; 30 ug/ml API, LPS 24 h, THP-1 cells): very little effect
O=C(O)Cc1ccccc1Nc1c(Cl)cccc1Cl [Diclofenac] |  | more potent than Ibuprofen | 1 (≈ 3.38 µM) | most soluble | presence of NaCl2— and Na2Cl3— ions (diclofenac markers) ([1]; tape strips 1-3, 1 mg/ml Diclofenac): none; LPS-stimulated IL-8 response ([2]; final concentration 1 or 0.1 ug/ml, normalised with cell count): reduced; LPS-stimulated TNF-α response [4]: reduced; intensity of Cl—, NaCl2- and Na2Cl3- markers in the stratum corneum [5]: slight elevation
